Reference: patent publication US20250179017A1 (GUANGDONG NEWOPP BIOPHARMACEUTICALS CO., LTD., priority 2022, published 2025)

Target: T1, human EP2 (PTGER2) (Homo sapiens, UniProt P43116)
T1 construct: Cayman Chemical (Human EP2 Reporter Assay Kit)
Test: EP2 antagonist assay (HEK-293 CNG membrane potential cAMP assay / 293T SEAP reporter assay, PGE2-stimulated)
Assay type: cell-based
Conditions: EP2 antagonist activity; concentration for 50% inhibition of signal compared to DMSO
Text: 1. The HEK-293 CNG (Cyclic Nucleotide Gated) cell line expressing a modified CNG channel that leads to cell membrane depolarization in response to elevated intracellular cAMP levels, which can be measured using a fluorescent membrane potential dye, was engineered to express human EP2 (PTGER2) or EP4 (EP4R). The resulting cell line ACTOne™ PTGER2 or ACTOne™ EP4R as well as the fluorescent membrane potential dye were purchased from eEnzyme (Gaithersburg, MD, US) and used in this assay. Briefly, cells were plated at 1.2×10^4 cells/well in 20 μL DMEM supplemented with 2% Fetal Bovine Serum (FBS, VWR International), 1x Penicillin/Streptomycin (GenClone), 0.2 μg/mL puromycin (InvivoGen) and 50 μg/mL G418 (InvivoGen) on a 384 well plate (Greiner). The next day, cells were dye-loaded with 20 μL/well of 1x Dye-loading solution (eENZYME) following the manufacturer's instruction. After 2 hours of incubation at room temperature (RT) in the dark, a pre-read was made to obtain the background signals using CLARIOstar plate reader (BMG LABTECH, Germany) with the following filter settings: excitation=530/20 nm, emission=590/20 nm. Next, a serial dilution of compound (plus a DMSO control) were added to the plate (5 μL/well) and the reaction was incubated at RT for 15 min before adding 5 μL of PGE2 to every well for a final concentration of 5 nM. All wells were duplicated. The plate was then further incubated at RT for 30 min prior to a final read with the same machine settings. Background-subtracted signals were used to calculate IC50 values.
2. Human EP2 and EP4 Reporter Assay Kits were purchased from Cayman Chemical (Ann Arbor, MI, USA). The assay was performed following the provided User Manual. Briefly, a reverse transfection was performed by seeding 6.0×10^4 of 293T cells (ATCC) to each well of the provided Strip Plate coated with a proprietary transfection complex containing DNA constructs for expressing human EP2 or EP4 and a cAMP response element regulated secreted alkaline phosphatase (SEAP) reporter, in 200 μL DMEM supplemented with 2% FBS and incubated for 20-24 hours at 37° C. with 5% CO2. After the incubation, the culture medium was carefully removed, and the cells were replenished with 150 μL pre-warmed serum-free medium. PGE2 and test compounds were prepared together at 4x the desired final concentration, and 50 μL was added to each assigned well with the final concentration of 13 nM and 2 nM PGE2 for EP2 and EP4 assay, respectively. After 6-8 hours of incubation, 10 μL media from each well was transferred to corresponding well of a new plate, which was then sealed and incubated at 65° C. for 30 min. The plate was then cooled down to RT and 50 μL SEAP substrate was added to each well. Luminescence signal was measured using a CLARIOstar plate reader.
The IC50 value was determined as the concentration for 50% inhibition of signal compared to DMSO (A: IC50 […]; B: IC50 between 100 nM and 1,000 nM; C: IC50≥1,000 nM).

T1 sequence (P43116 whole entry): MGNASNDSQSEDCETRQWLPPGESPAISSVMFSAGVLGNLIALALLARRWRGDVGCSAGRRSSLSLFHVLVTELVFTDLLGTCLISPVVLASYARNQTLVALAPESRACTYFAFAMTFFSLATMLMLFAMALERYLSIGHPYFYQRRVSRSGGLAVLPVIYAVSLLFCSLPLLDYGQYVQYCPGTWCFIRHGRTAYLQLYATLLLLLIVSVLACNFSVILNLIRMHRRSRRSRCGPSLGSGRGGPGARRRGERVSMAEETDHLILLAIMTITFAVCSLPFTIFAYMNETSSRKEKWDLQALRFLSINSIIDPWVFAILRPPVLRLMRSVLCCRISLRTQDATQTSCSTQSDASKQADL

| Structure (SMILES) | IC50 [nM] |
| --- | --- |
| O=C(NC1CC2(C1)CC(C(=O)O)C2)c1cc(Br)cc2[nH]cc(Sc3ccc(C(F)(F)F)cc3)c12 (racemic) [Example 112, (+) 6-(6-bromo-3-((4-(trifluoromethyl)phenyl)thio)-1H-indole-4-carboxamido)spiro[3.3]heptane-2-carboxylic acid] | 100 to 1000 |
| O=C(NC1CC2(C1)CC(C(=O)O)C2)c1cc(-c2ccccc2)cc2[nH]cc(Sc3ccc(C(F)(F)F)cc3)c12 (racemic) [Example 113, (±) 6-(6-phenyl-3-((4-(trifluoromethyl)phenyl)thio)-1H-indole-4-carboxamido)spiro[3.3]heptane-2-carboxylic acid] | < 100 |
| N#Cc1cccc(-c2cc(C(=O)NC3CC4(C3)CC(C(=O)O)C4)c3c(Sc4ccc(C(F)(F)F)cc4)c[nH]c3c2)c1 (racemic) [Example 114, (±) 6-(6-(3-cyanophenyl)-3-((4-(trifluoromethyl)phenyl)thio)-1H-indole-4-carboxamido)spiro[3.3]heptane-2-carboxylic acid] | < 100 |
| NC(=O)c1cccc(-c2cc(C(=O)NC3CC4(C3)CC(C(=O)O)C4)c3c(Sc4ccc(C(F)(F)F)cc4)c[nH]c3c2)c1 (racemic) [Example 115, (±) 6-(6-(3-carbamoylphenyl)-3-((4-(trifluoromethyl)phenyl)thio)-1H-indole-4-carboxamido)spiro[3.3]heptane-2-carboxylic acid] | 100 to 1000 |
| CC(c1ccc(C(F)(F)F)cc1)n1ccc2cc(-c3ccccc3)cc(C(=O)NCc3ccc(C(=O)O)cc3)c21 (racemic) [Example 178, (±) 4-((5-phenyl-1-(1-(4-(trifluoromethyl)phenyl)ethyl)-1H-indole-7-carboxamido)methyl)benzoic acid] | < 100 |
| CC(NC(=O)c1cc(-c2ccccc2)cc2cnn(Cc3cccc(C(F)(F)F)c3)c12)[C@H]1CC[C@H](C(=O)O)CC1 (mixture of isomers) [Example 222, (±) (1r,4r)-4-1-(5-phenyl-1-(3-(trifluoromethyl)benzyl)-1H-indazole-7-carboxamido)ethyl)cyclohexane-1-carboxylic acid] | < 100 |
| O=C(O)c1ccc(C2(NC(=O)c3cc(-c4ccc(F)cc4)cc4ccn(Cc5ccc(C(F)(F)F)cc5)c34)CC2)cc1 [Example 5, 4-(1-(5-(4-fluorophenyl)-1-(4-(trifluoromethyl)benzyl)-1H-indole-7-carboxamido)cyclopropyl)-benzoic acid] | 100 to 1000 |
| O=C(O)c1ccc(C2(NC(=O)c3cc(-c4ccccc4)cc4ccn(Cc5ccc(C(F)(F)F)cc5)c34)CC2)cc1 [Example 6, 4-(1-(5-phenyl-1-(4-(trifluoromethyl)benzyl)-1H-indole-7-carboxamido)cyclopropyl)benzoiacid] | 100 to 1000 |
| O=C(O)c1ccc(CNC(=O)c2cc(-c3ccc(F)c(F)c3)cc3ccn(Cc4ccc(C(F)(F)F)cc4)c23)cc1 [Example 8, 4-((5-(3,4-difluorophenyl)-1-(4-(trifluoromethyl)benzyl)-1H-indole-7-carboxamido)methyl)benzoic acid] | < 100 |
| N#Cc1cccc(-c2cc(C(=O)NC3(c4ccc(C(=O)O)cc4)CC3)c3c(ccn3Cc3ccc(C(F)(F)F)cc3)c2)c1 [Example 17, 4-(1-(5-(3-cyanophenyl)-1-(4-(trifluoromethyl)benzyl)-1H-indole-7-carboxamido)cyclopropyl)benzoic acid] | < 100 |
| O=C(O)c1ccc(C2(NC(=O)c3cc(-c4ccc(F)c(F)c4)cc4ccn(Cc5ccc(C(F)(F)F)cc5)c34)CC2)cc1 [Example 18, 4-(1-(5-(3,4-difluorophenyl)-1-(4-(trifluoromethyl)benzyl)-1H-indole-7-carboxamido)cyclopropyl)benzoic acid] | 100 to 1000 |
| O=C(O)c1ccc(C2(NC(=O)c3cc(-c4cc(F)cc(F)c4)cc4ccn(Cc5ccc(C(F)(F)F)cc5)c34)CC2)cc1 [Example 19, 4-(1-(5-(3,5-difluorophenyl)-1-(4-(trifluoromethyl)benzyl)-1H-indole-7-carboxamido)cyclopropyl)benzoic acid] | ≥ 1000 |
| O=C(O)c1ccc(C2(NC(=O)c3cc(-c4cccc(C(F)(F)F)c4)cc4ccn(Cc5ccc(C(F)(F)F)cc5)c34)CC2)cc1 [Example 20, 4-(1-(1-(4-(trifluoromethyl)benzyl)-5-(3-(trifluoromethyl)phenyl)-1H-indole-7-carboxamido)cyclopropyl)benzoic acid] | ≥ 1000 |
| N#Cc1cccc(-c2ccc(C(=O)NCc3ccc(C(=O)O)cc3)c3c2ccn3Cc2ccc(C(F)(F)F)cc2)c1 [Example 22, 4-((4-(3-cyanophenyl)-1-(4-(trifluoromethyl)benzyl)-1H-indole-7-carboxamido)methyl)benzoic acid] | 100 to 1000 |

Now from value to molecule:

| IC50 [nM] | Structure (SMILES) |
| --- | --- |
| ≥ 1000 | C[C@@H](NC(=O)c1cc(-c2ccc(F)cc2)cc2ccn(Cc3ccc(C(F)(F)F)cc3)c12)c1ccc(C(=O)O)cc1 [Example 3, (R)-4-(1-(5-(4-fluorophenyl)-1-(4-(trifluoromethyl)benzyl)-1H-indole-7-carboxamido)ethyl)benzoic acid] |
| ≥ 1000 | C[C@@H](NC(=O)c1cc(-c2ccccc2)cc2ccn(Cc3ccc(C(F)(F)F)cc3)c12)c1ccc(C(=O)O)cc1 [Example 4, (R)-4-(1-(5-phenyl-1-(4-(trifluoromethyl)benzyl)-1H-indole-7-carboxamido)ethyl)benzoic acid] |
| 100 to 1000 | O=C(O)c1ccc(CNC(=O)c2cc(-c3cccc(C(F)(F)F)c3)cc3ccn(Cc4ccc(C(F)(F)F)cc4)c23)cc1 [Example 10, 4-((1-(4-(trifluoromethyl)benzyl)-5-(3-(trifluoromethyl)phenyl)-1H-indole-7-carboxamido)methyl)benzoic acid] |
| < 100 | O=C(O)c1ccc(CNC(=O)c2cc(-c3cc(F)cc(C(F)(F)F)c3)cc3ccn(Cc4ccc(C(F)(F)F)cc4)c23)cc1 [Example 11, 4-((5-(3-fluoro-5-(trifluoromethyl)phenyl)-1-(4-(trifluoromethyl)benzyl)-1H-indole-7-carboxamido)methyl)benzoic acid] |
| ≥ 1000 | C[C@@H](NC(=O)c1cc(-c2cccc(C#N)c2)cc2ccn(Cc3ccc(C(F)(F)F)cc3)c12)c1ccc(C(=O)O)cc1 [Example 12, (R)-4-(1-(5-(3-cyanophenyl)-1-(4-(trifluoromethyl)benzyl)-1H-indole-7-carboxamido)ethyl) benzoic acid] |
| ≥ 1000 | C[C@@H](NC(=O)c1cc(-c2ccc(F)c(F)c2)cc2ccn(Cc3ccc(C(F)(F)F)cc3)c12)c1ccc(C(=O)O)cc1 [Example 13, (R)-4-(1-(5-(3,4-difluorophenyl)-1-(4-(trifluoromethyl)benzyl)-1H-indole-7-carboxamido)ethyl)benzoic acid] |
| ≥ 1000 | C[C@@H](NC(=O)c1cc(-c2cc(F)cc(F)c2)cc2ccn(Cc3ccc(C(F)(F)F)cc3)c12)c1ccc(C(=O)O)cc1 [Example 14, (R)-4-(1-(5-(3,5-difluorophenyl)-1-(4-(trifluoromethyl)benzyl)-1H-indole-7-carboxamido)ethyl) benzoic acid] |
| ≥ 1000 | C[C@@H](NC(=O)c1cc(-c2cccc(C(F)(F)F)c2)cc2ccn(Cc3ccc(C(F)(F)F)cc3)c12)c1ccc(C(=O)O)cc1 [Example 15, (R)-4-(1-(1-(4-(trifluoromethyl)benzyl)-5-(3-(trifluoromethyl)phenyl)-1H-indole-7-carboxamido)ethyl) benzoic acid] |
| ≥ 1000 | C[C@@H](NC(=O)c1cc(-c2cc(F)cc(C(F)(F)F)c2)cc2ccn(Cc3ccc(C(F)(F)F)cc3)c12)c1ccc(C(=O)O)cc1 [Example 16, (R)-4-(1-(5-(3-fluoro-5-(trifluoromethyl)phenyl)-1-(4-(trifluoromethyl)benzyl)-1H-indole-7-carboxamido)ethyl)benzoic acid] |
| 100 to 1000 | O=C(O)c1ccc(C2(NC(=O)c3cc(-c4cc(F)cc(C(F)(F)F)c4)cc4ccn(Cc5ccc(C(F)(F)F)cc5)c34)CC2)cc1 [Example 21, 4-(1-(5-(3-fluoro-5-(trifluoromethyl)phenyl)-1-(4-(trifluoromethyl)benzyl)-1H-indole-7-carboxamido)cyclopropyl)benzoic acid] |
